Reference: patent US20230364271A1, “METHODS AND COMPOSITIONS FOR INCREASING UPTAKE, INTERNALIZATION, AND/OR RETENTION OF SMALL MOLECULE LIGANDS” (CORNELL UNIVERSITY, priority 2020, published 2023)

Assays:
[1] = test system: LNCaP cells; assay: Retention of internalized Lu^177-labelled agent in LNCaP cells (Example 1); assay type: cell-based, human; conditions: for efflux out of the cells after internalization: 2 human prostate cancer cell lines (LNCaP and CWR22Rv1); for cell-associated counts retained: LNCaP
Description: (§1) LNCaP or CWR22Rv1 cells were plated into 12-well plates overnight. Lu^177-J591 (0.5 μci/ml/well) or Lu^177-PSMA-617 (0.5 μci/ml/well) was then added, and the cells were incubated for 6 hours at 37° C. to allow internalization. Duplicate wells were used for each time point. After 6 hours of incubation, the cells were washed once with RPMI-10% FBS. 0.6 ml of 1% TritonX-100 was added per well for 2 wells as 0 time point, and 1.5 ml of RPMI-10% FBS was added to the remaining wells. The cells were incubated at 37° C. for 1 to 6 days. On day 1, 2, 3, 5, and 6, the medium was removed and 0.6 ml of 1% TritonX-100 was added to each well. The lysate was collected from each well and all samples were counted at day 6. Results are shown in Table 1 below (in % of time 0 counts) and FIGS. 1A-1B.

[2] = test system: CWR22Rv1 cells; assay: Retention of internalized Lu^177-labelled agent in CWR22Rv1 cells (Example 1); assay type: cell-based, human
Description: as §1

[3] = test system: CWR22rv1 tumors; assay: Tumor uptake of PSMA-617-Lu^177 in CWR22rv1 xenografts with cold antibody (Example 4); assay type: in vivo, BALB/c nude mice; conditions: PSMA-617-Lu^177 300 μci IV with PBS, day 3 post-injection, average
Description: CWR22rv1 cells (5×10^6 cells/200 μl matrigel/mouse) were injected into 40 BALB/c nude mice. After tumors were established and growing, all mice were injected intravenously (IV) via tail vein with PSMA-617-Lu^177 (300 μci/per mouse) on day 0. The treatment groups were as follows.
All mice were euthanized 3 days after injection of PSMA-617-Lu^177. All tumors were harvested, weighed individually, and radioactivity counted.

`O=C([O-])CN1CCN(CC(=O)[O-])CCN(CC(=O)NCC2CCC(C(=O)N[C@@H](Cc3ccc4ccccc4c3)C(=O)NCCCC[C@H](NC(=O)N[C@@H](CCC(=O)O)C(=O)O)C(=O)O)CC2)CCN(CC(=O)[O-])CC1.[177Lu+3]` (stereo partly drawn) [Lu^177-PSMA-617] was tested, and the “efflux out of the cells after internalization” value ([1]; listed as PSMA 617-Lu^177) was “rapidly effluxed back out of the cell soon after internalization”, the “efflux out of the cells after internalization” value ([1]; listed as small molecule ligand) was “rapidly effluxed out of the cells” and the cell-associated counts retained ([1]; 0 time (after 6 h incubation)) was 100.00 % of time 0 counts. For the same compound, the cell-associated counts retained ([1]; Day 1) was 52.21 % of time 0 counts, the cell-associated counts retained ([1]; Day 2) was 56.06 % of time 0 counts and the cell-associated counts retained ([1]; Day 3) was 42.80 % of time 0 counts. For the same compound, the cell-associated counts retained ([1]; Day 5) was 39.12 % of time 0 counts, the cell-associated counts retained ([1]; Day 6) was 35.82 % of time 0 counts and the cell-associated counts retained ([2]; CWR22Rv1, 0 time (after 6 h incubation)) was 100.00 % of time 0 counts. For the same compound, the cell-associated counts retained ([2]; CWR22Rv1, Day 1) was 24.37 % of time 0 counts, the cell-associated counts retained ([2]; CWR22Rv1, Day 2) was 23.99 % of time 0 counts and the cell-associated counts retained ([2]; CWR22Rv1, Day 3) was 10.28 % of time 0 counts. For the same compound, the cell-associated counts retained ([2]; CWR22Rv1, Day 5) was 9.39 % of time 0 counts, the cell-associated counts retained ([2]; CWR22Rv1, Day 6) was 7.64 % of time 0 counts and the tumor radioactivity [3] was 150 cpm/mg of tumor.
